From the OPERA property sets (Mansouri et al. 2018)

Conditions: for log10 biotransformation half-life (days) / log10 BCF: fish

Structure (SMILES)	boiling point	log10 vapour pressure (mmHg)	melting point	also measured
CCCCCC=O	131 °C	1.05	-56 °C	log10 Henry constant (atm·m³/mol): -3.67; log10 Koa: 4.41; ready biodegradability: readily biodegradable
CC(=O)Nc1ccc(S(=O)(=O)Nc2ccc([N+](=O)[O-])cc2)cc1			240 °C	
O=C1OCc2ccccc21	290 °C	-2.7	75 °C	ready biodegradability: readily biodegradable
Clc1cccc(-c2c(Cl)ccc(Cl)c2Cl)c1				log10 biotransformation half-life (days): 2.47
O=[N+]([O-])/N=C1\NCCN1Cc1ccc(Cl)nc1			144 °C	
CN(CCCC(=O)c1cccnc1)N=O			64 °C	
Brc1ccc(Oc2c(Br)cc(Br)cc2Br)c(Br)c1				logP: 7.24; log10 BCF: 6.36
CC(C)CC(=O)C1C(=O)c2ccccc2C1=O			68.5 °C	
CCOc1cccc([N+](=O)[O-])c1	264 °C		36 °C	
Cc1cccc2c(C)cccc12	265 °C	-2.3	82 °C	log10 Henry constant (atm·m³/mol): -3.46
O=S(=O)(O)c1ccc(Cl)cc1			67 °C	ready biodegradability: readily biodegradable
C=CC(C)(CCC=C(C)C)OC(=O)C(C)C (stereo not given)	229 °C			
CC(C)CC#N	128 °C		-101 °C	
OCCCc1cccnc1	284 °C			
CC(Br)(CBr)COc1c(Br)cc(Br)cc1Br (stereo not given)				ready biodegradability: not readily biodegradable
CCCCCCCCCCCCCCI		-3.85		
CC(C)NCCO	173 °C		128 °C	
OCc1ccccc1	205 °C	-1.03	-15.2 °C	log10 Henry constant (atm·m³/mol): -6.47; log10 Koc (L/kg): 1.1; ready biodegradability: readily biodegradable
O=C(O)[C@H]1CC=CCC1	234 °C		17 °C	
NC(=O)Nc1ccc(F)cc1				log10 Koc (L/kg): 1.52
Cc1ccc(CCO)cc1	244 °C			
ClC(Cl)(Cl)Cl	76.8 °C	2.06	-23 °C	log10 Henry constant (atm·m³/mol): -1.56; log10 Koa: 2.79; log10 Koc (L/kg): 1.85; ready biodegradability: not readily biodegradable; log10 BCF: 0.87; log10 biotransformation half-life (days): -1.19
CC(C)CCN(CCC(C)C)CCC(C)C	235 °C			
C#CCCCCCC	126 °C	1.13	-79.3 °C	

Structure (SMILES)	boiling point	log10 vapour pressure (mmHg)	melting point	also measured
SCCCCS	196 °C		-53.9 °C	
CC=CCCCCCCCCO	248 °C		6 °C	
CC(=O)NC(=O)NC(C)=O			154 °C	
C[C@]12C/C(=C/O)C(=O)C[C@@H]1CC[C@@H]1[C@@H]2CC[C@@]2(C)[C@H]1CC[C@]2(C)O			179 °C	
O=C(O)CCCc1ccc(N(CCCl)CCCl)cc1			65 °C	
CC(=O)NBr			104 °C	
C=CCC(C(C)=O)C(=O)OCC (stereo not given)	208 °C			
CN(C)c1cccc([N+](=O)[O-])c1	282 °C		60.5 °C	
CC(C)=CC(C)(C)C	105 °C	1.56	-106 °C	
C=C=C(C)C	40.8 °C	2.63	-114 °C	
Oc1cccc(-c2ccccc2)c1			78 °C	
O=C(O)CCOc1cccc2ccccc12			146 °C	
Fc1ccccn1	127 °C			
CNC(=O)Oc1cccc(C(C)C)c1			73 °C	
C=CCc1ccccc1OCC(O)CNC(C)C (stereo not given)			108 °C	
c1ccc(N2CCN(c3ccccc3)CC2)cc1			165 °C	
O=C1NCCCN1			265 °C	
c1ccncc1	115 °C	1.32	-41.6 °C	log10 Henry constant (atm·m³/mol): -4.96; log10 Koc (L/kg): 1.6; ready biodegradability: readily biodegradable
CCCC(N)C(=O)O (racemic)			305 °C	
C[C@H](O)C(F)(F)F	75.5 °C	1.78		log10 Henry constant (atm·m³/mol): -4.66
Cc1c([C@H](C)[C@@H]2NC[C@@H](C)C[C@H]2O)ccc2c1C[C@H]1[C@H]2CC=C2C[C@@H](O)CC[C@@]21C			206 °C	
CCCCCCC(C)Cl (stereo not given)	172 °C	0.136		
O=[N+]([O-])c1cccc(S(=O)(=O)NCCNS(=O)(=O)c2cccc([N+](=O)[O-])c2)c1			190 °C	
CCC(C)(C)Br	108 °C			

Structure (SMILES)	boiling point	log10 vapour pressure (mmHg)	melting point	also measured
CC(=O)[C@H]1CC[C@H]2[C@@H]3C[C@H](C)C4=CC(=O)CC[C@]4(C)[C@H]3[C@@H](O)C[C@]12C			156 °C	
C=C(C)C1CC=C(C)C(O)C1 (stereo not given)	228 °C			
CCC(=O)Nc1nc(C)c(Cl)s1			159 °C	
COc1cc([N+](=O)[O-])ccc1N			141 °C	ready biodegradability: not readily biodegradable
CCOC(=O)C(C)(C)Br	163 °C	0.417		
N#Cc1ccccc1N	263 °C		51 °C	
O=C(O)c1nc(Cl)ccc1Cl		-4.92	151 °C	log10 Koc (L/kg): 1.56
Clc1c(Br)c(Br)c2c(c1Br)Oc1c(Br)c(Br)c(Cl)c(Br)c1O2		-12.5	385 °C	
O=C(O)C(F)(F)C(F)(F)C(F)(F)C(F)(F)C(F)(F)C(F)(F)C(F)(F)C(F)(F)C(F)(F)C(F)(F)C(F)(F)F	249 °C		108 °C	ready biodegradability: not readily biodegradable
COS(=O)(=O)[O-].C[n+]1c2ccccc2nc2ccccc21			157 °C	
CCCCCCCC(=O)CCCCCCC	291 °C	-3.39	43 °C	
C=C(C)C1CC1	70 °C			
O=C(CCCN1CCC(O)(c2ccc(Br)cc2)CC1)c1ccc(F)cc1			155 °C	
FC(F)(Cl)C(Cl)(Cl)C(F)(F)Cl	112 °C		-42.9 °C	
CC(C)(C(N)=O)n1nc2ccccc2n1			174 °C	
CCCI	103 °C	1.63	-101 °C	
COC(=O)/C=C\C(=O)OC	198 °C	-0.523		
OCCCCCC(F)(F)F	166 °C			
Clc1cccc(Cl)c1	173 °C	0.332	-24.8 °C	log10 Henry constant (atm·m³/mol): -2.58; log10 Koa: 4.12; log10 Koc (L/kg): 2.58; ready biodegradability: not readily biodegradable; log10 BCF: 2.33; log10 biotransformation half-life (days): -0.21
O=C(O)COc1nn(Cc2ccccc2)c2ccccc12			160 °C	
CC(C)(O)CCCC1=CCC(C=O)CC1 (stereo not given)			-30 °C	ready biodegradability: readily biodegradable
O=C(O)CCCCCCBr	280 °C		31 °C	ready biodegradability: readily biodegradable
Clc1cc(Cl)c(Cl)cc1Cl	244 °C	-2.27	140 °C	log10 Henry constant (atm·m³/mol): -3; log10 Koa: 5.63; log10 Koc (L/kg): 4.1; ready biodegradability: not readily biodegradable; log10 BCF: 3.44; log10 biotransformation half-life (days): 1.79
C=C[N+](=O)[O-]	98.5 °C		-55.5 °C	

Structure (SMILES)	boiling point	log10 vapour pressure (mmHg)	melting point	also measured
C=C(C)CCCC	92 °C	1.78	-103 °C	
CCOCCOC(C)=O	156 °C	0.369	-61.7 °C	log10 Henry constant (atm·m³/mol): -5.49; ready biodegradability: readily biodegradable
CC(=O)Oc1ccc(C2(c3ccc(OC(C)=O)cc3)Oc3ccccc3NC2=O)cc1			190 °C	
Cc1ccc(N=c2sccn2C)c(C)c1		-4.74	44 °C	
C=CCCC(C)(C)C	104 °C			
Clc1cc2cccc(Cl)c2cc1Cl				log10 Koa: 7.5
CCOC(=O)C(C(=O)OCC)C(C(=O)OCC)C(=O)OCC			77 °C	
CCC(=O)CC	102 °C	1.58	-39 °C	log10 Henry constant (atm·m³/mol): -4.3; log10 Koa: 3.2; ready biodegradability: readily biodegradable
Nc1ccc2ncsc2c1			87 °C	
COP(=O)(OC)O/C(C)=C/C(=O)N(C)C		-3.8		log10 Henry constant (atm·m³/mol): -10.3; log10 Koc (L/kg): 1.66
CCCCCC(=O)CCCCC	228 °C	-1.3	14.5 °C	ready biodegradability: readily biodegradable
COC(=O)NN			73 °C	
CCCCCCC=CCC(=O)O			18 °C	
BrCc1ccccc1CBr			95 °C	
FC1(F)C(Cl)=C(Cl)C(F)(F)C(F)(F)C1(F)F	113 °C		-70 °C	
CCCCCCCCCCCCOC(C)=O	265 °C		1.3 °C	
NCC1CCC(C(=O)O)CC1 (stereo not given)				ready biodegradability: not readily biodegradable
Clc1cc(Cl)c(-c2ccc(Cl)c(Cl)c2Cl)cc1Cl		-5.42		log10 Henry constant (atm·m³/mol): -4.68; log10 Koa: 9.8; log10 Koc (L/kg): 5.93; log10 biotransformation half-life (days): 2.59
CCCCCOC(=O)CCCCC	226 °C		-47 °C	
NCCCCCCN	205 °C	-0.928	41.5 °C	ready biodegradability: readily biodegradable
NC(=O)c1ccc(Cl)cc1			174 °C	
CC1(C)[C@H](C(=O)O[C@@H](C#N)c2cccc(Oc3ccccc3)c2)[C@@H]1C=C(Cl)Cl (single isomer, unassigned)				log10 biotransformation half-life (days): 0.7
CCCCCCCCCCCCCCc1ccccc1	359 °C	-4.62	16 °C	
ClCCc1ccccc1				ready biodegradability: not readily biodegradable

Structure (SMILES)	boiling point	log10 vapour pressure (mmHg)	melting point	also measured
CC(C)(C)CC(C)(C)S	160 °C	0.716	-74 °C	
O=C(Br)CBr	148 °C			
CC(O)C(C)(C)CO (stereo not given)	208 °C			
O=C1OC(=O)C2CC=CCC12 (stereo not given)				ready biodegradability: not readily biodegradable
C=CC=C(C)C	76.5 °C			
CNCC(OC)OC	140 °C			
O=C(O)C(O)c1ccc(Br)cc1 (stereo not given)			118 °C	
FC1=C(F)C(F)(F)C(F)(F)C(F)(F)C1(F)F	52 °C			
C1CCNCC1	106 °C	1.51	-7 °C	log10 Henry constant (atm·m³/mol): -5.35; log10 Koa: 4.04; ready biodegradability: readily biodegradable
CC(=O)NC(Cc1ccccc1)C(=O)O (stereo in doubt)			172 °C	
CC(=C(CCO)SSC(CCO)=C(C)N(C=O)Cc1cnc(C)nc1N)N(C=O)Cc1cnc(C)nc1N			177 °C	
O=c1oc2ccccc2c(O)c1C1CCCc2ccccc21 (stereo not given)		-10.2	172 °C	
CCCCOCOCCCC	179 °C		-58.1 °C	
O=C(O)CCCCBr			39 °C	
CCCCCCCCCCOC(=O)CCCCC(=O)OCCCCCCCC			-50 °C	
C1CCCCCCC1	149 °C	0.741	14.8 °C	
CC(=O)c1ccc(Cl)s1			52 °C	
CC#Cc1ccccc1	183 °C			
Oc1cccc2sccc12			79.8 °C	
NC1CCC(CC2CCC(N)CC2)CC1 (stereo not given)	320 °C		15 °C	
CCCCCCCCCC(=O)O	269 °C	-3.44	31.9 °C	ready biodegradability: readily biodegradable
CCCCC(CCCC)c1ccncc1				ready biodegradability: readily biodegradable
FC(F)C(F)(F)F	-48.5 °C	4.02	-103 °C	
Clc1ccc2ccccc2c1Cl	296 °C	-2.7	36 °C	log10 Koa: 6.89
